Laboratory results: patent US11771083B2, “Flower thinning composition and flower thinning method using same” (priority 2018, dated 2023)
Read-outs that look alike come from different tables or passages of the source.

Experiments:
Fuji apple variety [1] = assay: Flower-thinning effect of one alcohol species formulations (Test Example 1); assay type: in vivo; conditions: for Number of lateral fruits set: 20 days post-spraying; for Lateral flower-thinning rate (%) / Total flower-thinning rate (%): relative to untreated group; for Flower-thinning contribution rate in IAP-108: spray concentration 0.2%, effect × content (0.4 or 0.6)
honeybees [2] = assay: Acute contact toxicity to honeybees, active ingredients in acetone (Test Example 4); assay type: in vivo; conditions: for Lethality (%): 72 hours after treatment
peach leaves = conditions: 3-4% decyl alcohol; cited from earlier work
honeybees [3] = conditions: active ingredient dissolved in acetone
Experimental: In the contact toxicity test for honeybees, healthy honeybees bred in an outdoor beekeeping system were acclimated in a breeding cage, and then anesthetized with CO2. […] This treatment was repeated 3 times for ten honeybees per test cage, and the honeybees were bred at 25° C. under dark conditions for 72 hours. The lethality of each aliphatic alcohol was measured.

Fuji apple variety [4] = conditions: in vivo; for Phytotoxicity: Fuji, apple
Experimental: Each of the chemical solutions was sprayed with a DIA (FURUPLA DIA SPRAY 570, Furupla Co., Ltd.) handy spray in both right and left directions in a sufficient amount to run along each flower cluster.
In this test, treatment (spraying) was performed when lateral flowers was in full bloom (Apr. 25, 2014), and phytotoxicity was assessed by visual scoring on day 4 after post-spraying (April 29) and day 11 after post-spraying (May 6). The flower-thinning effect was measured by recording the number of young fruits set without flower thinning on 20 days post-spraying (May 15). The flower thinning activity relative to that of the untreated group was presented as (1−number of young fruits in treated group/number of young fruits in untreated group)×100. This test was designed to have 8 replications with one flower cluster as one replication. Fertilization of the apple flowers was induced by natural fertilization.

[5] = treatment dose 200 μg per honeybee in acetone

## CCCCCCCCCCO [1-Decanol, 1-decanol]
Fuji apple variety [1]; concentration 0.01%
  Number of central fruits set: 6
  Total number of fruits set: 22
  Number of lateral fruits set: 16
  Lateral flower-thinning rate (%): 16%
  Total flower-thinning rate (%): 12%
Fuji apple variety [1]; concentration 0.05%
  Number of central fruits set: 5
  Total number of fruits set: 22
  Number of lateral fruits set: 17
  Lateral flower-thinning rate (%): 11%
  Total flower-thinning rate (%): 12%
Fuji apple variety [1]; concentration 0.2%
  Number of central fruits set: 5
  Total number of fruits set: 15
  Number of lateral fruits set: 10
  Lateral flower-thinning rate (%): 47%
  Total flower-thinning rate (%): 40%
Fuji apple variety [1]
  Flower-thinning contribution rate in IAP-108: 28.2%
Honeybees [2]; among aliphatic alcohols and versus fatty acids of same carbon number
  Comparative contact toxicity to honeybees (in words): more toxic than 1-decanoic acid
Honeybees [2]; in vivo
  Comparative contact toxicity to honeybees (in words): highest lethality
Honeybees [2]; treatment dose 50 μg per honeybee in acetone
  Lethality (%): 70%
Honeybees [2]; [5]
  Lethality (%): 100%
Peach leaves
  Phytotoxicity to peach leaves: significant phytotoxicity
Honeybees [3]; treatment dose 50 μg
  Lethality (%): 70%
Fuji apple variety [4]
  Phytotoxicity: 0
  Phytotoxicity (in words): no phytotoxicity

## CCCCCCO [1-Hexanol, 1-hexanol]
Fuji apple variety [1]; concentration 0.2%
  Number of central fruits set: 6
  Total number of fruits set: 15
  Number of lateral fruits set: 9
  Lateral flower-thinning rate (%): 53%
  Total flower-thinning rate (%): 40%
Fuji apple variety [1]; concentration 1%
  Number of central fruits set: 5
  Total number of fruits set: 10
  Number of lateral fruits set: 5
  Lateral flower-thinning rate (%): 74%
  Total flower-thinning rate (%): 60%
Honeybees [2]; [5]
  Lethality (%): 6.7%
Honeybees [3]; treatment dose 100 μg
  Lethality (%): 3.3%
Fuji apple variety [4]
  Phytotoxicity: 0

## CCCCCCCCO [1-Octanol, 1-octanol]
Fuji apple variety [1]; concentration 0.2%
  Number of central fruits set: 7
  Total number of fruits set: 13
  Number of lateral fruits set: 6
  Lateral flower-thinning rate (%): 68%
  Total flower-thinning rate (%): 48%
Fuji apple variety [1]; concentration 1%
  Number of central fruits set: 3
  Total number of fruits set: 4
  Number of lateral fruits set: 1
  Lateral flower-thinning rate (%): 95%
  Total flower-thinning rate (%): 84%
Fuji apple variety [1]; concentration of 1% (V/V)
  Efficacy (in words): sufficient efficacy
Fuji apple variety [1]
  Flower-thinning contribution rate in IAP-108: 27.2%
Honeybees [2]; [5]
  Lethality (%): 50%
Honeybees [3]; treatment dose 100 μg
  Lethality (%): 50%

## CCCCCCCCCC(=O)O [1-decanoic acid, reference compound]
Honeybees [2]; [5]
  Lethality (%): 90%

## CCCCCC(=O)O [1-hexanoic acid, reference compound]
Honeybees [2]; [5]
  Lethality (%): 30.0%

## CCCCCCCC(=O)O [1-octanoic acid, reference compound]
Honeybees [2]; [5]
  Lethality (%): 60%

## CCCCCCCC/C=C\CCCCCCCCO [Oleyl alcohol, oleyl alcohol]
Fuji apple variety [1]; concentration 0.1%
  Lateral flower-thinning rate (%): 16%
Honeybees [2]; [5]
  Lethality (%): 20%
